In assay [1] the target is Human immunodeficiency virus type 1 reverse transcriptase (Human immunodeficiency virus 1) (UniProt Q72547). Put plainly: Inhibition of wild type HIV1 reverse transcriptase.
Assay [2] deals with Human immunodeficiency virus 1. Put plainly: Antiviral activity against wild type HIV1 NL4-3 infected in human MT4 cells assessed as virus-induced cell death by MTT method. The note with it: Human immunodeficiency virus 1, NL4-3, MT4; read-out: ED50 (the source's name). The format is functional. Background: Formazan colour is commonly taken as a measure of viable cells.
The test system of assay [3] is Human immunodeficiency virus 1. Put plainly: Antiviral activity against drug-resistant HIV1 with reverse transcriptase K103N mutant infected in human MT4 cells assessed as virus-induced cell death by MTT method. The format is functional. The note with it: Human immunodeficiency virus 1, MT4; read-out: ED50 (the source's name).
Assay [4] has as its system Human immunodeficiency virus 1. Put plainly: Antiviral activity against drug-resistant HIV1 with reverse transcriptase Y181C mutant infected in human MT4 cells assessed as virus-induced cell death by MTT method. The format is functional. The note with it: Human immunodeficiency virus 1, MT4; read-out: ED50 (the source's name).
The nature of assay [5]: Ratio of ED50 for drug resistant HIV1 with reverse transcriptase Y181C mutant to wild type HIV1 NL4-3. The format is functional.
Assay [6] can be described thus: Ratio of ED50 for drug resistant HIV1 with reverse transcriptase K103N mutant to wild type HIV1 NL4-3. The format is functional.

As for `CSc1nc(N)c(C)c(C(F)c2ccccc2)n1` (centres undefined), the ID50 in assay [1] is over 20 µM. In addition, the EC50 in assay [2], in assay [3] and in assay [4] was over 25 µM each time.
`CNc1nc(N)c(C)c(C(=O)c2ccccc2)n1` returned an ID50 in assay [1] of over 20 µM. Also, the EC50 in assay [2] is 3.4 µM; in assay [3], over 25 µM; in assay [4], over 25 µM.
Compound `CSc1nc(N)c(C)c(C(=O)c2cccc3ccccc23)n1` registered an ID50 in assay [1] of 2.7 µM. The EC50 in assay [2], in assay [3] and in assay [4] was over 19.4 µM throughout.
Turning to `CSc1nc(N)c(C)c(C(=O)Cc2ccccc2)n1`, the ID50 in assay [1] was over 20 µM. Moreover, the EC50 in assay [2], in assay [3] and in assay [4] was over 25 µM throughout.
`CSc1nc(N)c(C)c(C(=O)c2ccccc2)n1`: the Ratio EC50 in assay [5] and in assay [6] was 28 each time. This compound showed an ID50 in assay [1] of 1.9 µM. In addition, the EC50 in assay [2] came to 0.06 µM; in assay [3], 1.67 µM; in assay [4] it was 1.71 µM.
With `Cc1ccnc2c1NC(=O)c1cccnc1N2C1CC1` [NEVIRAPINE], the EC50 in assay [2] was 0.04 µM; in assay [3], 0.68 µM; in assay [4] it was over 2 µM. The Ratio EC50 in assay [6] came to 17.
As for `Cc1c(N)nc(S(C)(=O)=O)nc1C(=O)c1ccccc1`, the results for the Ratio EC50 in assay [5] and in assay [6] were 23 and 43, respectively. In assay [1], this compound displayed an ID50 of 16 µM. In addition, the EC50 came to 0.44 µM in assay [2], 19.1 µM in assay [3] and 10.4 µM in assay [4].
`CSc1nc(N)c(C)c(C(=O)CCc2ccccc2)n1` displayed an ID50 in assay [1] of over 20 µM. The EC50 in assay [2], in assay [3] and in assay [4] was over 25 µM throughout.
As to `CSc1nc(N)c(C)c(C(=O)c2cccc(F)c2)n1`, the Ratio EC50 in assay [5] was determined as 23; in assay [6] it was 20. This compound also yielded an ID50 in assay [1] of 0.2 µM. In addition, the EC50 in assay [2] was 0.034 µM; in assay [3], 0.695 µM; in assay [4] it was 0.779 µM.
Take `CSc1nc(N)c(C)c(C(O)c2ccccc2)n1` (centres undefined): the ID50 in assay [1] was determined as 7.7 µM. In addition, the EC50 in assay [2], in assay [3] and in assay [4] was over 25 µM throughout.
As to `COc1ccc(CSc2nc(Cc3c(Cl)cccc3Cl)c(C)c(=O)[nH]2)cc1`, the EC50 in assay [2] was found to be 0.007 µM; in assay [3], 4.7 µM. Further, the Ratio EC50 in assay [6] worked out at 671.
In turn, `CSc1nc(N)c(C)c(/C(=N\O)c2ccccc2)n1` gave an ID50 in assay [1] of over 20 µM. The EC50 is 10.5 µM in assay [2], over 25 µM in assay [3] and over 25 µM in assay [4].
Compound `CSc1nc(N)c(C)c(C(Cl)c2ccccc2)n1` (centres undefined) returned an ID50 in assay [1] of over 20 µM. Besides, the values for the EC50 in assay [2], in assay [3] and in assay [4] were 12 µM, over 25 µM and over 25 µM, respectively.
For the compound `O=C1Nc2ccc(Cl)cc2[C@@](C#CC2CC2)(C(F)(F)F)O1` [EFAVIRENZ], the results for the EC50 in assay [3] and in assay [4] were 0.133 µM and 0.008 µM, respectively.

(Values after ChEMBL document CHEMBL1143432, “Towards novel S-DABOC inhibitors: synthesis, biological investigation, and molecular modeling studies” (2008).)
